From ChEMBL document CHEMBL5614413, “Design, synthesis and biological evaluation of amphiphilic benzopyran derivatives as potent antibacterial agents against multidrug-resistant bacteria” (Eur J Med Chem, 2024) come the findings set out here.

The subject of experiment [1] is Staphylococcus aureus. The experiment can be described thus: Antibacterial activity against methicillin-resistant Staphylococcus aureus ATCC 43300 infected in sepsis mouse model assessed as reduction in number of surviving bacterial colonies in blood at 5 mg/kg pre-infected with bacteria for 1 hrs followed by continuous compound administration at 12 hrs intervals for 2 days relative to control. In kind it is functional. Conditions: time 2 day.

For experiment [2], the system named is Staphylococcus aureus. As to the kind of experiment: Antibacterial activity against methicillin-resistant Staphylococcus aureus ATCC 43300 infected in sepsis mouse model assessed as reduction in bacterial load in liver at 5 mg/kg pre-infected with bacteria for 1 hrs followed by continuous compound administration at 12 hrs intervals for 2 days (reference value: 7.16 log10CFU/g). In kind it is functional. Conditions: time 2 day.

Experiment [3] has as its system Pseudomonas aeruginosa. The experiment can be described thus: Antibacterial activity against penicillin-susceptible Pseudomonas aeruginosa ATCC 27853. It counts as functional.
Experiment [4] has as its system Klebsiella pneumoniae. As to the kind of experiment: Antibacterial activity against Klebsiella pneumoniae ATCC 10031. It counts as functional.
The subject of experiment [5] is Staphylococcus aureus. The experiment can be described thus: Antibacterial activity against methicillin-resistant Staphylococcus aureus ATCC 43300 infected in sepsis mouse model assessed as reduction in bacterial load in blood at 5 mg/kg pre-infected with bacteria for 1 hrs followed by continuous compound administration at 12 hrs intervals for 2 days (reference value: 3.69 log10CFU/ml). Conditions: time 2 day. It counts as functional.

The subject of experiment [6] is Staphylococcus aureus. As to the kind of experiment: Antibacterial activity against methicillin-resistant Staphylococcus aureus ATCC 43300 infected in sepsis mouse model assessed as reduction in number of surviving bacterial colonies in liver at 5 mg/kg pre-infected with bacteria for 1 hrs followed by continuous compound administration at 12 hrs intervals for 2 days relative to control. The following applies: time 2 day. In kind it is functional.

Experiment [7] concerns Staphylococcus aureus. The experiment can be described thus: Antibacterial activity against methicillin-resistant Staphylococcus aureus ATCC 43300 infected in sepsis mouse model assessed as reduction in bacterial load in kidney at 5 mg/kg pre-infected with bacteria for 1 hrs followed by continuous compound administration at 12 hrs intervals for 2 days (reference value: 6.75 log10CFU/g). In kind it is functional. Conditions: time 2 day.

The test system of experiment [8] is Escherichia coli. The experiment can be described thus: Antibacterial activity against penicillin-susceptible Escherichia coli ATCC 25922. In kind it is functional.
Experiment [9] deals with Staphylococcus aureus. As to the kind of experiment: Antibacterial activity against methicillin-resistant Staphylococcus aureus ATCC 43300 infected in sepsis mouse model assessed as reduction in pathological damages in liver at 5 mg/kg pre-infected with bacteria for 1 hrs followed by continuous compound administration at 12 hrs intervals for 2 days by H and E staining based analysis. Conditions: time 2.0 day. In kind it is functional, organism-based.

The subject of experiment [10] is Staphylococcus aureus. The experiment can be described thus: Antibacterial activity against methicillin-resistant Staphylococcus aureus ATCC 43300 infected in sepsis mouse model assessed as reduction in number of surviving bacterial colonies in kidney at 5 mg/kg pre-infected with bacteria for 1 hrs followed by continuous compound administration at 12 hrs intervals for 2 days relative to control. Conditions: time 2 day. In kind it is functional.

Experiment [11] deals with Staphylococcus aureus. The experiment can be described thus: Antibacterial activity against methicillin-resistant Staphylococcus aureus ATCC 43300 infected in sepsis mouse model assessed as reduction in pathological damages in spleen at 5 mg/kg pre-infected with bacteria for 1 hrs followed by continuous compound administration at 12 hrs intervals for 2 days by H and E staining based analysis. In kind it is functional, organism-based. The following applies: time 2.0 day.

The subject of experiment [12] is Staphylococcus aureus. As to the kind of experiment: Antibacterial activity against methicillin-resistant Staphylococcus aureus ATCC 43300 infected in sepsis mouse model assessed as reduction in pathological damages in kidney at 5 mg/kg pre-infected with bacteria for 1 hrs followed by continuous compound administration at 12 hrs intervals for 2 days by H and E staining based analysis. It counts as functional, organism-based. Conditions: time 2.0 day.

In experiment [13] the test system is Staphylococcus aureus. As to the kind of experiment: Antibacterial activity against methicillin-resistant Staphylococcus aureus ATCC 43300 infected in sepsis mouse model assessed as decrease in TNF-alpha level in blood at 5 mg/kg pre-infected with bacteria for 1 hrs followed by continuous compound administration at 12 hrs intervals for 2 days. The following applies: time 2.0 day. It counts as functional, organism-based.

Experiment [14] concerns Staphylococcus aureus. As to the kind of experiment: Antibacterial activity against methicillin-resistant Staphylococcus aureus ATCC 43300 infected in sepsis mouse model assessed as decrease in IL-6 level in blood at 5 mg/kg pre-infected with bacteria for 1 hrs followed by continuous compound administration at 12 hrs intervals for 2 days. In kind it is functional, organism-based. Conditions: time 2.0 day.

Experiment [15] concerns Staphylococcus aureus. The experiment can be described thus: Antibacterial activity against methicillin-resistant Staphylococcus aureus ATCC 43300 infected in sepsis mouse model assessed as reduction in number of surviving bacterial colonies in spleen at 5 mg/kg pre-infected with bacteria for 1 hrs followed by continuous compound administration at 12 hrs intervals for 2 days relative to control. In kind it is functional. The following applies: time 2 day.

The subject of experiment [16] is Acinetobacter baumannii. The experiment can be described thus: Antibacterial activity against Acinetobacter baumannii ATCC 19606. It counts as functional.
Experiment [17] deals with Staphylococcus aureus. The experiment can be described thus: Antibacterial activity against methicillin-resistant Staphylococcus aureus ATCC 43300 infected in sepsis mouse model assessed as reduction in bacterial load in spleen at 5 mg/kg pre-infected with bacteria for 1 hrs followed by continuous compound administration at 12 hrs intervals for 2 days (reference value: 7.45 log10CFU/g). It counts as functional. Conditions: time 2 day.

The test system of experiment [18] is Bacillus subtilis. As to the kind of experiment: Antibacterial activity against penicillin-susceptible Bacillus subtilis ATCC 9372. It counts as functional.
The subject of experiment [19] is Enterococcus faecalis. As to the kind of experiment: Antibacterial activity against vancomycin-susceptible Enterococcus faecalis ATCC 29212. In kind it is functional.

In brackets after ≈: the same amount, converted by molar mass. Activity calls are given as the source filed them. The rule behind the calls is not given here.

The term MIC denotes the lowest concentration that inhibits growth of the organism. Low readings indicate a more susceptible organism, high ones a less susceptible organism. For `CN[C@H](CC(C)C)C(=O)N[C@H]1C(=O)N[C@@H](CC(N)=O)C(=O)N[C@H]2C(=O)N[C@H]3C(=O)N[C@H](C(=O)N[C@H](C(=O)O)c4cc(O)cc(O)c4-c4cc3ccc4O)[C@H](O)c3ccc(c(Cl)c3)Oc3cc2cc(c3O[C@@H]2O[C@H](CO)[C@@H](O)[C@H](O)[C@H]2O[C@H]2C[C@](C)(N)[C@H](O)[C@H](C)O2)Oc2ccc(cc2Cl)[C@H]1O` [VANCOMYCIN], the Activity in experiment [1] amounted to 96.5%; in experiment [2] it was 2.7 log10CFU/g; in experiment [5], 1.5 log10CFU/ml; in experiment [6], 99.8%; in [7] it was 2.73 log10CFU/g; in [10], 99.8%. Moreover, the Activity in experiment [15] was determined as 99.6%; in experiment [17], 2.33 log10CFU/g. For the same molecule, the MIC was > 128 µg/mL in [3]; 128 µg/mL (≈ 88.3 µM) in experiment [4]; 128 µg/mL (≈ 88.3 µM) in experiment [8]; 16 µg/mL (≈ 11 µM) in [16]; 0.5 µg/mL (≈ 0.345 µM) in [18]; 2 µg/mL (≈ 1.38 µM) in [19]. Also, the outcome in experiment [9], in experiment [11], in experiment [12], in [13] and in experiment [14] was Active.
